Laboratory results taken from ChEMBL document CHEMBL4627391, “Bioactive Compounds from the Aerial Parts of Evolvulus linarioides” (J Nat Prod, 2020).

What was measured:
J774 [1] = test: Antiinflammatory activity in mouse J774 cells assessed as LPS/IFNgamma-induced IL-1beta level at 25 uM incubated for 24 hrs by ELISA (reference value: 9.6 to 26.1 pg/mg); assay type: functional
J774 [2] = test: Antiinflammatory activity in mouse J774 cells assessed as LPS/IFNgamma-induced IL-1beta level at 6.3 uM incubated for 24 hrs by ELISA (reference value: 9.6 to 26.1 pg/mg); assay type: functional
J774 [3] = test: Antiinflammatory activity in mouse J774 cells assessed as inhibition of LPS/IFNgamma-induced IL-1beta level incubated for 24 hrs by ELISA relative to control; assay type: functional
J774 [4] = test: Antiinflammatory activity in mouse J774 cells assessed as inhibition of LPS/IFNgamma-induced NO production incubated for 24 hrs by Griess method; assay type: functional, cell-based; details: J774, 24 h
J774 [5] = test: Antiinflammatory activity in mouse J774 cells assessed as LPS/IFNgamma-induced IL-1beta level at 100 uM incubated for 24 hrs by ELISA (reference value: 9.6 to 26.1 pg/mg); assay type: functional
[6] = Cytotoxicity against mouse J774 cells assessed as reduction in cell viability after 72 hrs by Alamar Blue assay; assay type: cell-based
J774 [7] = test: Antiinflammatory activity in mouse J774 cells assessed as inhibition of LPS/IFNgamma-induced IL-1beta level at 10 uM incubated for 24 hrs by ELISA relative to control; assay type: functional; details: J774, 24 h

Structure (SMILES)	IC50 (J774 [4]) [µM]	Activity (J774 [1]) [pg/mg]	Activity (J774 [2]) [pg/mg]	Imax (J774 [3]) [%]	Activity (J774 [5]) [pg/mg]	CC50 at 72 h [6] [µM]	inhibition at 10 µM (J774 [7]) [%]
C/C=C(/C)C(=O)OC[C@@H](OC(C)=O)[C@@H](OC(=O)/C(C)=C\C)C(O)(COC(=O)/C(C)=C\C)COC(=O)/C(C)=C\C	34.2	14.6	15.6	80.6	3.8	206	–
CC(=O)OC[C@@]1(O)CC[C@H]2O[C@@]2(C)CC[C@@H]2[C@@H]1CC2(C)C	52.2	6.5	10.2	75	2.4	273	–
CN(C)c1ccc(C(=C2C=CC(=[N+](C)C)C=C2)c2ccc(N(C)C)cc2)cc1 [GENTIAN VIOLET]	–	–	–	–	–	0.8	–
O=c1cc(CO[C@@H]2O[C@H](CO)[C@@H](O)[C@H](O)[C@H]2O)oc2cc(O)cc(O)c12 [MONNIERISIDE A]	66.3	9.1	14.6	85.5	2	201	–
Cc1cc(=O)c2c(O)cc(O[C@@H]3O[C@H](CO)[C@@H](O)[C@H](O)[C@H]3O)cc2o1 [UNDULATOSIDE A]	51.2	9.5	14.5	89.6	1.5	191	–

Continued, in another order:

IC50 (J774 [4]) [µM]	Structure (SMILES)	Activity (J774 [1]) [pg/mg]	Activity (J774 [2]) [pg/mg]	Imax (J774 [3]) [%]	Activity (J774 [5]) [pg/mg]	CC50 at 72 h [6] [µM]	inhibition at 10 µM (J774 [7]) [%]
25.3	CC[C@@H](CO)C(=O)OC[C@@H]1O[C@H](OCc2cc(=O)c3c(O)cc(O)cc3o2)[C@@H](O)[C@H](O)[C@H]1O	8.6	8.4	96.2	0.3	209	–
28.2	C/C=C(/C)C(=O)OCC(O)(COC(=O)/C(C)=C\C)[C@H](OC(=O)/C(C)=C\C)[C@@H](COC(C)=O)OC(C)=O (some centres not stated)	9.3	7.3	88.5	1.1	198	–
17.8	C=C1CC[C@@H]2[C@H](CC2(C)C)[C@@](O)(CO)CC[C@@H]1O	7	14.3	93	0.7	193	–
30.3	C/C1=C/C[C@@H]2[C@H](CC2(C)C)[C@@](O)(CO)CC[C@@H]1O	14	28.6	92.5	1.5	194	–
22.4	O=c1cc(CO)oc2cc(O)cc(O)c12 [CNIDIMOL C]	10.5	15.7	72.7	3.9	256	–
5.2	C[C@@H]1C[C@H]2[C@@H]3CCC4=CC(=O)C=C[C@]4(C)[C@@]3(F)[C@@H](O)C[C@]2(C)[C@@]1(O)C(=O)CO [DEXAMETHASONE]	–	–	–	–	–	87.1
